In patent US4456611A, “Derivatives of 2-[3-(3-indoly)2-amino propionyloxy] acetic acid, and seritoning increasing use thereof” (Laboratoires Panmedica, priority 1981, dated 1984):

test system: endogenous serotonin in the brain; experiment: biochemical assay of endogenous serotonin in the brain of rats after oral administration of a single dose; format: in vivo; details: orally, single dose of 10 mg/kg, Wistar male adult rats
Description: The compounds according to the invention show remarkable pharmacological activities, in particular on the central nervous system. These assays were carried out after administration orally of a single dose of 10 mg/kg in Wistar male adult rats.

Compound | % increase of brain serotonin [%]
CCCCCCCCCCCCOC(=O)COC(=O)[C@@H](N)Cc1c[nH]c2ccc(O)cc12 [Example 13b, n-dodecyl L-2-[3-(5-hydroxy 3-indolyl) 2-aminopropionyloxy]acetate] | 26
N[C@@H](Cc1c[nH]c2ccc(O)cc12)C(=O)OCC(=O)OCC12CC3CC(CC(C3)C1)C2 [Example 15b, 1-adamantyl methyl L-2-[3-(5-hydroxy 3-indolyl) 2-aminopropionyloxy]acetate] | 17
CC(OC(=O)COC(=O)[C@@H](N)Cc1c[nH]c2ccc(O)cc12)C(C)(C)C (stereo partly drawn) [Example 14c, (3,3-dimethyl) 2-butyl L-2-[3-(5-hydroxy 3-indolyl) 2-aminopropionyloxy]acetate] | 32
CCCCOC(=O)COC(=O)[C@@H](N)Cc1c[nH]c2ccc(O)cc12 [Example 8b, n-butyl L-2-[3-(5-hydroxy 3-indolyl) 2-aminopropionyloxy]acetate] | 20
CCOC(=O)COC(=O)[C@@H](N)Cc1c[nH]c2ccc(O)cc12 [Example 6b, Ethyl L-2-[3-(5-hydroxy 3-indolyl) 2-aminopropionyloxy]acetate] | 22
CCCCCCCCOC(=O)COC(=O)[C@@H](N)Cc1c[nH]c2ccc(O)cc12 [Example 12b, n-octyl L-2-[3-(5-hydroxy 3-indolyl) 2-aminopropionyloxy]acetate] | 15
N[C@@H](Cc1c[nH]c2ccc(O)cc12)C(=O)O [(L)5 HTP, 5-hydroxy-tryptophane, reference compound] | 10

test system: not listed separately; experiment: acute toxicity in the mouse (LD50); details: in vivo, po, orally
Description: The acute toxicities of the derivatives according to the invention in the mouse are very much less than those of L 5-HTP. Thus the LD50's of all of the compounds according to the invention are higher than 1250 mg/kg, whereas the LD50 (orally) of L 5-HTP is equal to 700 mg/kg.

Compound | LD50 [mg/kg]
N[C@@H](Cc1c[nH]c2ccc(O)cc12)C(=O)O [(L)5 HTP, 5-hydroxy-tryptophane, reference compound] | 700
